Data taken from patent US20130210907A1, “METHOD FOR PREVENTING OR TREATING ENTEROCHROMAFFIN CELL HYPERPLASIA-RELATED DISEASES BY QUERCETIN ADMINISTRATION” (HONG KONG BAPTIST UNIVERSITY, priority 2012, published 2013).

Experiments:
[1] = test system: PI-IBS rats; assay: Abdominal withdrawal reflex (AWR) test: pain threshold pressure to colorectal distension; format: in vivo, rat; details: for Pain threshold pressure, after treatment: 2 weeks
Experimental: Sprague-Dawley male rats (Laboratory Animal Services Centre, The Chinese University of Hong Kong) aged 6 weeks with body weight around 220 g are used to develop PI-IBS model. Briefly, rats are fasted for 24 h, and deeply anesthetized with chloral hydrate (350 mg.kg^−1, i.p.). After induction of colitis by 2,4,6-trinitrobenzenesulfonic acid solution (TNBS, 5 mg/0.8 ml/rat, in 50% ethanol, 8 cm from anus) administration, the rats are allowed to recover for at least 4 weeks before use. The control rats are similarly administered with 0.8 ml saline instead of TNBS. Only the rats that have completely recovered from the initial inflammation and acquired visceral hypersensitivity are used as the PI-IBS rats.
6 groups of 12 rats are tested. Normal rats (Group 1) are treated with water. PI-IBS rats are randomly divided into 5 groups and orally treated with water (Group 2), Doxantrazole (mast cell stabilizer, 30 mg/kg/d, Group 3), and Quercetin (Group 4-6) at the dose of 5, 10, and 20 mg/kg/d, respectively. After 2 weeks daily drug administration, 5 rats in each group are used to measure pain threshold pressure by abdominal withdrawal reflex (AWR) test, and the remaining […] is used for electromyography (EMG) recording.
AWR test is performed as previously described in Al-Chaer E D, Kawasaki M, Pasricha P J. A new model of chronic visceral hypersensitivity in adult rats induced by colon irritation during postnatal development. Gastroenterology. 2000 November; 119(5):1276-85. Briefly, rats are lightly anesthetized with ether; a latex balloon is inserted into the descending colon. Rats are then allowed to recover for about 1 h. The tube of the balloon is connected via a Y-connector to a sphygmomanometer and colorectal distension is applied in increments of 5 mmHg until a visible contraction of the abdominal wall is observed by an investigator blinded to the treatment. The pain threshold pressure is defined as the intensity of colorectal distension (CRD) that elicited an observable AWR, i.e. a sudden and persistent abdominal muscle contraction with abdomen lift off the platform. The pain threshold pressure of all groups is recorded and repeated five times with intervals of at least 5 minutes for recovery. EMG recording are conducted as previously described in Tammpere A, Brusberg M, Axenborg J, Hirsch I, Larsson H, Lindstrom E. Evaluation of pseudo-affective responses to noxious colorectal distension in rats by manometric recordings. Pain. 2005 August; 116(3):220-6 and Li Z, Zhang X J, Xu H X, Sung J J, Bian Z X. Intracolonical administration of protease-activated receptor-2 agonists produced visceral hyperalgesia by up-regulating serotonin in the colon of rats. Eur J. Pharmacol. 2009 Mar. 15; 606(1-3):199-204. Firstly, a surgical operation is made to implant the electrodes into the left external abdominal oblique muscles 7 days before EMG recording. After the last drug administration, a flexible latex balloon is inserted into the rat descending colon, and the rats are allowed to accommodate for 1 h. CRD is initiated, and the EMG signal is amplified and filtered by Power Lab System. Graded colorectal distension (20, 40, 60, and 80 mmHg; 20 s duration; 2 min inter-stimulus interval) is carried out for total three cycles to each rat. The changes of area under the curve (AUC) are calculated using that during 20 s distension period over the 20 s baseline.

[2] = test system: PI-IBS rats; assay: Mechanical stimuli (CRD)-induced 5-HT release: colonic 5-HT content with or without CRD; format: in vivo, rat; details: for 5-HT content of tissue, +CRD: after CRD; for 5-HT content of tissue, -CRD: without CRD; for Decrease of colon tissue 5-HT content after CRD application: not significant
Experimental: 5-HT content in the colon tissue is assayed based on our previously reported procedure in Qi S D, Tian S L, Xu H X, Sung J J, Bian Z X. Quantification of luminally released serotonin in rat proximal colon by capillary electrophoresis with laser-induced fluorescence detection. Anal Bioanal Chem. 2009 April; 393(8):2059-66. Briefly, the colon segment is homogenized in 15% iced trichloroacetic acid; for 2 min and stored at 4° C. for 2 h. After centrifuge at 10,000 G for 15 min, the supernatant of each sample is filtered using 0.22 μm filters and extracted with diethyl ether for five times to remove the trichloroacetic acid. The prepared samples are added to derivatization solution (150 mM sodium tetraborate, 25% acetonitrile, 2 mM CFSE) and incubated for […] in dark at room temperature. The 5-HT content is analyzed by capillary electrophoresis with laser-induced fluorescence detection and expressed as nanogram per milligram (wet weight of tissue).
To determine whether mechanical stimuli (CRD) can induce colonic 5-HT release in PI-IBS rats, and whether Quercetin has effect on it, 5-HT content in colonic tissue is evaluated in rats with or without AWR test. The colon tissues for 5-HT content determination are collected from the rats from Example 1 and Example 2, and the methods for 5-HT content determination are followed as described in Example 2.

[3] = test system: QGP-1 cells; assay: Cell cycle analysis by flow cytometry (propidium iodide); format: cell-based, human; details: 24 h
Experimental: QGP-1 cells are seeded at a density of 10×10^4 cells/ml and pre-incubated overnight. After incubation with or without Quercetin (0-100 μM) for 24 h, cells are harvested by trypsinization and fixed in 70% ethanol at 4° C. overnight. The cells are centrifuged to remove ethanol and washed twice using ice-cold PBS. The cell pallets are resuspended in 500 n1 propidium iodide solution (0.1% Triton X-100, 50 μg/ml propidium iodide in PBS) containing 50 μg/ml RNase and incubated at 37° C. for 30 min and protected from the light. The DNA content of 10,000 cells is detected by BD FASCanto Flow Cytometry and analyzed using […] software (Becton Dickinson, Heidelberg, Germany). The data are representative of those obtained in at least three experiments.

[4] = test system: PI-IBS rats; assay: Electron microscopy of EC cell secretory granules after CRD; format: in vivo, rat; details: median dose
Experimental: For electron microscopy evaluation, the colon tissues are collected from the rats treated with AWR test so as to investigate the feature of mechanical stimulus-induced 5-HT release. Colon segment is fixed for 24 h at 4° C. in fixative containing 4% paraformaldehyde and 0.2% picric acid in 0.1M PB, then washed and embedded in gelatin. Thin sections are cut and picked up on 200-mesh grids. The sections are stained with uranyl acetate and lead citrate. Examination and photography of sections are carried out using Philips CM 10 transmission electron microscope (Philips Scientifics, Netherlands). At the ultra-structural level, EC cell are distinguished from other enteroendocrine cells by the pleomorphic nature of their secretory granules. The EC cells in which there are many clear secretory granules without cores and granules with eccentric cores are considered as the activated one with excessive 5-HT release.

Structure (SMILES): O=c1c(O)c(-c2ccc(O)c(O)c2)oc2cc(O)cc(O)c12 [Quercetin, 2-(3,4-dihydroxyphenyl)-3,5,7-trihydroxy-4H-chromen-4-one]
- Pain threshold pressure, after treatment ([1]; 5 mg/kg i.g. daily): 32 ± 1.9 mmHg
- Pain threshold pressure, before treatment ([1]; 5 mg/kg i.g. group): 25 ± 1.9 mmHg
- Pain threshold pressure, after treatment ([1]; 10 mg/kg i.g. daily): 33 ± 1.8 mmHg
- Pain threshold pressure, before treatment ([1]; 10 mg/kg i.g. group): 25 ± 1.1 mmHg
- Pain threshold pressure, after treatment ([1]; 20 mg/kg i.g. daily): 35 ± 1.3 mmHg
- Pain threshold pressure, before treatment ([1]; 20 mg/kg i.g. group): 24 ± 1.1 mmHg
- 5-HT content of tissue, +CRD ([2]; 5 mg/kg i.g.): 4.96 ± 0.91^ ng/mg
- 5-HT content of tissue, -CRD ([2]; 5 mg/kg i.g.): 5.15 ± 0.58 ng/mg
- 5-HT content of tissue, +CRD ([2]; 10 mg/kg i.g.): 4.29 ± 0.58^ ng/mg
- 5-HT content of tissue, -CRD ([2]; 10 mg/kg i.g.): 4.63 ± 0.92 ng/mg
- 5-HT content of tissue, +CRD ([2]; 20 mg/kg i.g.): 4.01 ± 1.14 ng/mg
- 5-HT content of tissue, -CRD ([2]; 20 mg/kg i.g.): 5.50 ± 0.65^ ng/mg
- Decrease of colon tissue 5-HT content after CRD application ([2]; low dose): ~3.67%
- Decrease of colon tissue 5-HT content after CRD application ([2]; median dose): ~7.34%
- Cells in G0/G1 phase ([3]; QGP-1, 25 μM): 56.0 ± 3.5%
- Cells in G2/M phase ([3]; QGP-1, 25 μM): 21.8 ± 3.2%
- Cells in S phase ([3]; QGP-1, 25 μM): 22.3 ± 0.3%
- Cells in G0/G1 phase ([3]; QGP-1, 50 μM): 47.8 ± 4.0 %
- Cells in G2/M phase ([3]; QGP-1, 50 μM): 20.2 ± 4.29%
- Cells in S phase ([3]; QGP-1, 50 μM): 32.0 ± 0.4 %
- Cells in G0/G1 phase ([3]; QGP-1, 100 μM): 8.4 ± 1.7 %
- Cells in G2/M phase ([3]; QGP-1, 100 μM): 47.7 ± 2.2 %
- Cells in S phase ([3]; QGP-1, 100 μM): 43.9 ± 0.7 %
- Secretory granules of EC cells compared to PI-IBS rats (electron micrographs) [4]: became denser
